Experimental data reported in patent publication JPH0776588A, “p−ボロノフェニルアラニン誘導体、その製造方法及び該誘導体の中間体化合物” (Nippon Aluminum Alkyls Ltd, priority 1993, dated 1995).
In brackets after ≈: the same amount, converted by molar mass.

Tests used:
水溶性値 (water solubility) = assay type: physicochemical; settings: for solubility: water, M (mol dm-3)
[1] = tested on: B-16 human melanoma cells (B16) [B−16ヒト黒色癌細胞(B16)]; assay: Cytotoxicity in cultured  (B16); assay type: cell-based; settings: 50% or more not killed even after 3 days at 1.77×10^-2 M
[2] = Cytotoxicity in cultured  (B16); assay type: cell-based, human; settings: human, B16 cells
[3] = tested on: TIG-1-20 human infant germ cells (T20) [TIG−1−20ヒト乳児胚芽細胞(T20)]; assay: Permeability (浸透性) into T20 cells, residual intracellular boron by ICP-MS; assay type: cell-based; settings: boron compound 0.4 mmol, 37°C, 24 h
B16 cells [B16細胞] = assay: Permeability (浸透性) into B16 cells, residual intracellular boron by ICP-MS; assay type: cell-based, human; settings: 24 h
[4] = permeability B16 versus T20, 37°C

Structure (SMILES)	water solubility value relative to BPA (水溶性値 (water solubility); ratio to BPA)	solubility (水溶性値 (water solubility))	IC50 (in words) [1]	cytotoxicity at 72 h, 17700 µM ([2]; compound at 1.77×10^-2 M, even after 3 days, read-out: cells killed)	permeability into T20 cells (in words, versus BPA) [3]	permeability into B16 cells (in words, versus BPA) (B16 cells [B16細胞]; boron compound 0.4 mmol, 37°C)	selectivity for B16 over T20 (B16 cells [B16細胞]; [4])	IC50 at 72 h ([2]; similar culture conditions (compound (1): after 3 days))	selectivity for B16 over T20 (in words) (B16 cells [B16細胞]; [4])
NC(Cc1ccc(B(O)O)cc1)C(=O)NC(CO)CO (stereo not shown) [化合物(1)]	~100 fold	660 mM (≈ 186 mg/mL)	高い	< 50%	BPAよりはるかに低かった	BPAよりわずかに高い浸透性	≥ 5 fold	–	–
NC(Cc1ccc(B(O)O)cc1)C(=O)O (racemic) [BPA, p−ボロノフェニルアラニン, reference compound]	–	7.66 mM (≈ 1.6 mg/mL)	–	–	–	–	–	8.55 mM	殆ど選択性がない
